This is an account of results in patent EP4741383A1, “COMPOUND AND USE THEREOF AS ANTI-CANCER DRUG” (Tyligand Bioscience (Shanghai) Limited, priority 2023, dated 2025).

Structures are written as SMILES.

One assay has as its target T1, SHP2 enzyme (catalytic domain, amino acid sequence 224-528) (Homo sapiens, UniProt Q06124).
T1 construct: purchased GenScript
T1 sequence (Q06124 224-528): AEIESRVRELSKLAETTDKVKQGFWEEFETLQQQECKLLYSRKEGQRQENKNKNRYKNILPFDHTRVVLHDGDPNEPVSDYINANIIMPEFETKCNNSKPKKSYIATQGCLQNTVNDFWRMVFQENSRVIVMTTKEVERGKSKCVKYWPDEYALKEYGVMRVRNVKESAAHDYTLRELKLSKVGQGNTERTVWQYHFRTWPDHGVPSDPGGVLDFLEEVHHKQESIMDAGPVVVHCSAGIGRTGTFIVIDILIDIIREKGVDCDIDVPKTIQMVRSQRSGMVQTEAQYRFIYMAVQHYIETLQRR
The assay can be described thus: SHP2 enzyme inhibition assay (DiFMUP substrate, fluorescence). In kind it is biochemical.
Settings: not given
As for the experimental part: This experiment evaluates the inhibitory effect of the test compounds on SHP2 enzyme activity by detecting the reaction between the human recombinant protein SHP2 enzyme and the substrate.
The stock solutions of the reaction buffer components were thawed and mixed homogeneously at room temperature, to prepare the reaction buffer (55 mM HEPES pH = 7.2 (Sigma, Cat. No. #PHR1428), 100 mM NaCl (Beyotime, Cat. No. #ST374, 5 M solution), 0.5 mM EDTA (Beyotime, Cat. No. #ST066), 1 mM DL-Dithiothreitol (DTT) (Sigma, Cat. No. #D9779), 0.002% BSA (Solarbio, Cat. No. #A8010), 0.001% Brij35 (Brij® L23 solution (Brij35) (Sigma, Cat. No. #B4184)). The SHP2 enzyme (catalytic domain, amino acid sequence 224-528, expressed and purified by GenScript) was thawed slowly on ice. 1 µL of this solution (1.37 mg/mL) was added to 386 µL of the reaction buffer to dilute it to 100 nM. Then, 120 µL of the 100 nM SHP2 enzyme solution was added to 2880 µL of reaction buffer to prepare a 4 nM SHP2 enzyme working solution. The test compounds and the specific inhibitor of SHP2 (11a-1, used as a positive control, Zeng, L. et al., J. Med. Chem. 2014, 57, 6594-6609) were prepared as 10 mM DMSO solutions. 10 µL of the 10 mM compound solution was mixed with 20 µL of DMSO solution, and then serially diluted 3-fold, resulting in 10 concentrations. 1 µL of the serially diluted solution was mixed with 99 µL of reaction buffer to obtain a 10-fold diluted compound working solution.
A 96-well black half-area microplate (Greiner, catalog #675076) was used. 25 µL of 4 nM SHP2 enzyme working solution and 5 µL of 10x compound working solution were added to each well and incubated at room temperature for 30 minutes. 15 µL of DiFMUP substrate (Thermo Fisher Scientific, catalog #D6567) was added to 2985 µL of reaction buffer to prepare a 50 µM substrate working solution. After incubation of the compounds and SHP2 enzyme, 20 µL of the 50 µM substrate working solution was added to each well and incubated at room temperature for 5 minutes. The plate was then read on a multi-mode microplate reader (BioTek, Synergy H1) at 340 nm/450 nm fluorescence.
Data were analyzed using GraphPad Prism 9.0 software. A non-linear S-curve regression dose-response-inhibition equation was used to fit the data and generate the dose-response curve, from which the IC50 value was calculated. [formula]
`O=C(Nc1ccc(-c2cc3cc(F)c(-c4nnn[nH]4)cc3n2C2CCC2)cc1)C(=O)Nc1ccc(N2CC(CCO)C2)cc1` [Example 9]: the IC50 came to 87 nM.

Still in this assay, the particulars now being: SHP2 catalytic domain, DiFMUP substrate, 30 min pre-incubation; read-out: S HP2 I C50.
Take `CC1(CO)CCN(c2ccc(NC(=O)C(=O)Nc3ccc(-c4cc5cc(F)c(-c6nnn[nH]6)cc5n4C4(C)CC4)cc3)cc2)CC1` [Example 42]: the IC50 turned out to be 179 nM.

As to `N#Cc1nnc(-c2cc3c(cc2F)cc(-c2ccc(NC(=O)C(=O)Nc4ccc(N5CCC6(CCOC6)CC5)cc4)cc2)n3C2CCC2)[nH]1` [Example 127], the IC50 amounted to 144 nM.

Regarding `CCC1(CO)CCN(c2ccc(NC(=O)C(=O)Nc3ccc(-c4cc5cc(F)c(-c6nnn[nH]6)cc5n4C4CCC4)cc3)cc2)CC1` [Example 43], the IC50 stood at 52 nM. The same measure, in the same setting: to `O=C(Nc1ccc(C2=CCOC2)cc1)C(=O)Nc1ccc(-c2cc3cc(F)c(-c4nnn[nH]4)cc3n2C2CCC2)cc1` [Example 51] belongs 57 nM; to `COCC1(CO)CCN(c2ccc(NC(=O)C(=O)Nc3ccc(-c4cc5cc(F)c(-c6nnn[nH]6)cc5n4C4CCC4)cc3)cc2)CC1` [Example 44], 57 nM.

Turning to `CC(C)(O)C1CCN(c2ccc(NC(=O)C(=O)Nc3ccc(-c4cc5cc(F)c(-c6nnn[nH]6)cc5n4CC4CCC4)cc3)cc2)CC1` [Example 38], the IC50 worked out at 112 nM.

`CC1(n2c(-c3ccc(NC(=O)C(=O)Nc4ccc(N5CCC(CO)CC5)cc4)cc3)cc3cc(F)c(-c4nnn[nH]4)cc32)CCC1` [Example 24]: the IC50 was found to be 271 nM. As for `O=C(Nc1ccc(-c2cc3cc(F)c(-c4nnn[nH]4)cc3n2C2CCC2)cc1)C(=O)Nc1ccc(N2CC3(COC3)C2)cc1` [Example 53], the IC50 was 64 nM.

As for `CC(C)(O)C1CCC2(CC1)CN(c1ccc(NC(=O)C(=O)Nc3ccc(-c4cc5cc(F)c(-c6nnn[nH]6)cc5n4C4CCC4)cc3)cc1)C2` [Example 87], the IC50 came to 89 nM. In the case of `CC(C)(O)C1CCN(c2ccc(NC(=O)C(=O)Nc3ccc(-c4cc5cc(F)c(-c6nnn[nH]6)cc5n4C4(C)CC4)cc3)cc2)CC1` [Example 35], the IC50 stood at 174 nM.

Consider `O=C(Nc1ccc(-c2cc3cc(F)c(-c4nnn[nH]4)cc3n2CC2CC2)cc1)C(=O)Nc1ccc(N2CCC3(CCOC3)CC2)cc1` [Example 72], for which the IC50 came to 46 nM. In the case of `CC1CN(c2ccc(NC(=O)C(=O)Nc3ccc(-c4cc5cc(F)c(-c6nnn[nH]6)cc5n4C4CCC4)cc3)cc2)CC1CO` (stereo not drawn) [Example 18], the IC50 came out at 74 nM.

`CC(C)(O)C1CCN(c2ccc(NC(=O)C(=O)Nc3ccc(-c4cc5cc(F)c(-c6nnn[nH]6)cc5n4CC(F)(F)F)cc3)cc2)CC1` [Example 39]: the IC50 worked out at 43 nM.

On to `CC1(n2c(-c3ccc(NC(=O)C(=O)Nc4ccc(N5CCC6(CC(O)C6)C5)cc4)cc3)cc3cc(F)c(-c4nnn[nH]4)cc32)CCC1` (stereo not drawn) [Example 90], for which the IC50 came out at 139 nM.

`CC(C)(O)C1CCN(c2ccc(NC(=O)C(=O)Nc3ccc(-c4cc5cc(F)c(-c6nnn[nH]6)cc5n4CC4CC4)cc3)cc2)CC1` [Example 37]: the IC50 worked out at 44 nM.

On to `CC1(CO)CCN(c2ccc(NC(=O)C(=O)Nc3ccc(-c4cc5cc(F)c(-c6nnn[nH]6)cc5n4C4(C)CCC4)cc3)cc2)CC1` [Example 41], for which the IC50 was determined as 63 nM.

On to `CC1(n2c(-c3ccc(NC(=O)C(=O)Nc4ccc(N5CC6(CCCOC6)C5)cc4)cc3)cc3cc(F)c(-c4nnn[nH]4)cc32)CCC1` [Example 56], for which the IC50 came to 74 nM. Take `CC(O)C1CCN(c2ccc(NC(=O)C(=O)Nc3ccc(-c4cc5cc(F)c(-c6nnn[nH]6)cc5n4C4CCC4)cc3)cc2)C1` (stereo not drawn) [Example 15]: the IC50 worked out at 183 nM. The same measure, in the same setting: the figure for `CC1(C#N)CCN(c2ccc(NC(=O)C(=O)Nc3ccc(-c4cc5cc(F)c(-c6nnn[nH]6)cc5n4C4CCC4)cc3)cc2)C1` (stereo not drawn) [Example 11] is 30 nM; for `O=C(Nc1ccc(N2CCC3(CCOC3)CC2)cc1)C(=O)NC12CC(c3cc4cc(F)c(-c5nnn[nH]5)cc4n3C3CCC3)(C1)C2` [Example 65] it is 198 nM. In the case of `CC1CN(c2ccc(NC(=O)C(=O)Nc3ccc(-c4cc5cc(F)c(-c6nnn[nH]6)cc5n4C4CCC4)cc3)cc2)CCC1CO` (stereo not drawn) [Example 46], the IC50 amounted to 45 nM. Still for that read-out and setting: the figure for `O=C(Nc1ccc(-c2ccsc2)cc1)C(=O)Nc1ccc(-c2cc3cc(Cl)c(-c4nnn[nH]4)cc3n2C2CCC2)cc1` [Example 5] is 105 nM; for `O=C(Nc1ccc(-c2cc3cc(F)c(-c4nnn[nH]4)cc3n2C2CCC2)cc1)C(=O)Nc1ccc(N2CCOC3(CC3)C2)cc1` [Example 50] it is 113 nM; for `CC1(O)CCC2(CCN(c3ccc(NC(=O)C(=O)Nc4ccc(-c5cc6cc(F)c(-c7nnn[nH]7)cc6n5C5CCC5)cc4)cc3)C2)C1` (stereo not drawn) [Example 93] it is 56 nM. Same read-out and setting: to `N#CC1CCN(c2ccc(NC(=O)C(=O)Nc3ccc(-c4cc5cc(F)c(-c6nnn[nH]6)cc5n4C4CCC4)cc3)cc2)CC1` [Example 22] belongs 38 nM; to `O=C(Nc1ccc(-c2cc3cc(F)c(-c4nnn[nH]4)cc3n2C23CC(C2)C3)cc1)C(=O)Nc1ccc(N2CCC3(CCOC3)CC2)cc1` [Example 71], 50 nM; to `O=C(Nc1ccc(-c2cc3cc(F)c(-c4nnn[nH]4)cc3n2C2CCC2)cc1)C(=O)Nc1ccc(N2CC3(CCC(O)CC3)C2)cc1` [Example 81], 70 nM. For the compound `CC(C)(O)CCC1CCN(c2ccc(NC(=O)C(=O)Nc3ccc(-c4cc5cc(F)c(-c6nnn[nH]6)cc5n4C4CCC4)cc3)cc2)CC1` [Example 28], the IC50 stood at 92 nM. For the compound `CC1(O)CCC2(CN(c3ccc(NC(=O)C(=O)Nc4ccc(-c5cc6cc(F)c(-c7nnn[nH]7)cc6n5C5(C)CCC5)cc4)cc3)C2)C1` (stereo not drawn) [Example 80], the IC50 was 36 nM. The same measure, in the same setting: to `O=C(Nc1ccc(-c2cc3cc(F)c(-c4nnn[nH]4)cc3n2C2CCC2)cc1)C(=O)Nc1ccc(N2CC(CO)C2)cc1` [Example 8] belongs 130 nM; to `O=C(Nc1ccc(-c2cc3cc(F)c(-c4nnn[nH]4)cc3n2C2CCC2)cc1)C(=O)Nc1ccc(N2CC3(CCC(CO)CC3)C2)cc1` [Example 85], 47 nM; to `Cc1nnc(-c2cc3c(cc2F)cc(-c2ccc(NC(=O)C(=O)Nc4ccc(N5CCC6(CCOC6)CC5)cc4)cc2)n3C2CCC2)[nH]1` [Example 128], over 10000 nM. Still for that read-out and setting: the figure for `CC1(C)CN(c2ccc(NC(=O)C(=O)Nc3ccc(-c4cc5cc(F)c(-c6nnn[nH]6)cc5n4C4CCC4)cc3)cc2)CC1CO` (stereo not drawn) [Example 19] is 152 nM. Still for that read-out and setting: to `O=C(Nc1ccc(-c2cc3cc(F)c(-c4nnn[nH]4)c(F)c3n2C2CCC2)cc1)C(=O)Nc1ccc(N2CCC3(CCOC3)CC2)cc1` [Example 126] belongs 23 nM; to `O=C(Nc1ccc(-c2cc3cc(F)c(-c4nnn[nH]4)cc3n2C2CCC2)cc1)C(=O)Nc1ccc(N2CCC3(CCCCO3)CC2)cc1` [Example 73], 48 nM. For `O=C(Nc1ccc(-c2cc3cc(F)c(-c4nnn[nH]4)cc3n2C2CCC2)cc1)C(=O)Nc1ccc(N2CC3CC2CO3)cc1` (stereo not drawn) [Example 49], the IC50 is 133 nM.

For the compound `O=C(Nc1ccc(N2CCC3(CCOC3)CC2)cc1)C(=O)NC1CC=C(c2cc3cc(F)c(-c4nnn[nH]4)cc3n2C2CC2)CC1` (stereo not drawn) [Example 64], the IC50 amounted to 88 nM.

On to `O=C(Nc1ccc(-c2cc3cc(F)c(-c4nnn[nH]4)cc3n2C2CCC2)cc1)C(=O)Nc1ccc(N2CCC3(CC2)COC3)cc1` [Example 63], for which the IC50 stood at 38 nM. As for `O=C(Nc1ccc(-c2cc3cc(F)c(-c4nnn[nH]4)cc3n2C2CCC2)cc1)C(=O)Nc1ccc(N2CC3(CCC(O)C3)C2)cc1` (stereo not drawn) [Example 79], the IC50 was 108 nM.

On to `CC(C)(O)C1CCN(c2ccc(NC(=O)C(=O)Nc3ccc(-c4cc5cc(F)c(-c6nnn[nH]6)cc5n4C4(C)CCC4)cc3)cc2)CC1` [Example 34], for which the IC50 was found to be 72 nM.

The same assay, now with this note: relative to 11a-1, IC50 = 0.108 µM.
In the case of `CC1(C#N)CCN(c2ccc(NC(=O)C(=O)Nc3ccc(-c4cc5cc(F)c(-c6nnn[nH]6)cc5n4C4CCC4)cc3)cc2)C1` (stereo not drawn) [Example 11], the “SHP2 IC50 times lower than control compound 11a-1” value is 3-4 times. Still for that read-out and setting: to `N#CC1CCN(c2ccc(NC(=O)C(=O)Nc3ccc(-c4cc5cc(F)c(-c6nnn[nH]6)cc5n4C4CCC4)cc3)cc2)CC1` [Example 22] belongs 3-4 times; to `CC1(O)CCC2(CN(c3ccc(NC(=O)C(=O)Nc4ccc(-c5cc6cc(F)c(-c7nnn[nH]7)cc6n5C5(C)CCC5)cc4)cc3)C2)C1` (stereo not drawn) [Example 80], 3-4 times. For `O=C(Nc1ccc(-c2cc3cc(F)c(-c4nnn[nH]4)cc3n2C2CCC2)cc1)C(=O)Nc1ccc(N2CCC3(CC2)COC3)cc1` [Example 63], the “SHP2 IC50 times lower than control compound 11a-1” value is reported as 3-4 times.
